Common to all, as to format: functional
Assay [1] deals with Flavobacterium columnare. Nature of the assay: Antibacterial activity against Flavobacterium columnare ALM-00-173 after 24 hrs. As to conditions: ALM-00-173, 24 h.
The test system of assay [2] is Flavobacterium columnare. Nature of the assay: Antibacterial activity against Flavobacterium columnare BioMed after 24 hrs.
The test system of a further assay is Rhodococcus fascians. Kind of assay: Antibacterial activity against Corynebacterium fascians assessed as diameter of inhibition zone at 10 mM after 48 to 72 hrs by paper disc method. As to conditions: Rhodococcoides fascians; read-out: DIZ.
Assay [3] relates to Staphylococcus aureus. Kind of assay: Antibacterial activity against Staphylococcus aureus assessed as diameter of inhibition zone at 1 mg/ml. As to conditions: read-out: DIZ.
In assay [4] the test system is Escherichia coli. Nature of the assay: Antibacterial activity against Escherichia coli assessed as diameter of inhibition zone at 1 mg/ml. As to conditions: read-out: DIZ.
Another assay deals with Edwardsiella ictaluri. Kind of assay: Antibacterial activity against Edwardsiella ictaluri after 24 hrs.
For assay [5], the system named is Staphylococcus aureus. Nature of the assay: Antibacterial activity against Staphylococcus aureus.
Assay [6] relates to Escherichia coli. Kind of assay: Antibacterial activity against Escherichia coli incubated overnight by two-fold serial dilution method.
Assay [7] relates to Staphylococcus aureus. Kind of assay: Antibacterial activity against Staphylococcus aureus incubated overnight by two-fold serial dilution method.
In assay [8] the test system is Escherichia coli. Kind of assay: Antibacterial activity against Escherichia coli assessed as diameter of inhibition zone at 3 mg/ml. As to conditions: read-out: DIZ.
Assay [9] deals with Staphylococcus aureus. Nature of the assay: Antibacterial activity against Staphylococcus aureus assessed as diameter of inhibition zone at 3 mg/ml. As to conditions: read-out: DIZ.
The test system of the next assay is Klebsiella pneumoniae. Kind of assay: Antibacterial activity against Klebsiella pneumoniae incubated overnight by two-fold serial dilution method.
The next assay relates to Bacillus subtilis. Nature of the assay: Antibacterial activity against Bacillus subtilis incubated overnight by two-fold serial dilution method.
For assay [10], the system named is Escherichia coli. Kind of assay: Antibacterial activity against Escherichia coli.
The subject of assay [11] is Pseudomonas aeruginosa. Nature of the assay: Antibacterial activity against Pseudomonas aeruginosa after 24 hrs by broth microdilution method. On the technique in general: Broth dilution looks for growth in wells or tubes with falling amounts of substance.
Another assay relates to Shigella flexneri. Nature of the assay: Antibacterial activity against Shigella flexneri after 24 hrs by broth microdilution method.
The test system of assay [12] is Escherichia coli. Kind of assay: Antibacterial activity against Escherichia coli after 24 hrs by broth microdilution method.
Assay [13] relates to Agrobacterium tumefaciens. Kind of assay: Antibacterial activity against Agrobacterium tumefaciens assessed as inhibition of crown gall tumor initiation at 1 mg/ml.
Assay [14] deals with Escherichia coli. Kind of assay: Bacteriostatic activity against Escherichia coli assessed as growth inhibition at 8 ug/ml after 24 hrs. As to conditions: read-out: GI.
Assay [15] concerns Escherichia coli. Kind of assay: Antibacterial activity against Escherichia coli by agar dilution method.
The subject of assay [16] is Staphylococcus aureus. Kind of assay: Antibacterial activity against Staphylococcus aureus by agar dilution method. Background: In agar dilution, organisms are placed on agar that contains the substance at set levels.
For assay [17], the system named is Pseudomonas aeruginosa. Nature of the assay: Antibacterial activity against Pseudomonas aeruginosa.
Assay [18] deals with Flavobacterium columnare. Kind of assay: Antibacterial activity against Flavobacterium columnare BioMed.
In assay [19] the test system is Flavobacterium columnare. Kind of assay: Antibacterial activity against Flavobacterium columnare ALM-00-173.

Data on 22 compounds can be found in ChEMBL document CHEMBL4177607, “Antibacterial constituents of the plant family Amaryllidaceae” (2017).

What is called MIC is the lowest concentration found to suppress growth. A lower MIC goes with greater potency. The inhibition is the relative decrease from the control value, in per cent.

SMILES strings stand for the structures. In brackets after ≈: the same amount, converted by molar mass.

For the compound `Oc1cc2c3c(c1)c1cc4c(cc1c[n+]3CC2)OCO4`, the values for the MIC with Flavobacterium columnare [1] and with Flavobacterium columnare [2] were 1 µM and 10 µM, respectively. Further, in the assay on Rhodococcus fascians, the zone of inhibition at 10000 µM stood at 0 mm.

For `Oc1cc2c3c(c1)-c1cc4c(cc1CN3CC2)OCO4`, in the assay on Rhodococcus fascians, the zone of inhibition at 10000 µM turned out to be 0 mm.

For `O=C1N[C@@H]2C(=C[C@H](O)[C@@H](O)[C@H]2O)c2cc3c(cc21)OCO3`, the zone of inhibition at 1000 µg/mL worked out at 11 mm with Staphylococcus aureus [3] and 12 mm with Escherichia coli [4].

Regarding `O=C1C=C2CCN3Cc4cc5c(cc4[C@H]([C@@H]1O)[C@@H]23)OCO5`, the MIC with Flavobacterium columnare [1], in the assay on Edwardsiella ictaluri, against Flavobacterium columnare [2] and in the assay on Staphylococcus aureus [5] was over 26 µg/mL in each case.

`CC(=O)O[C@H]1[C@H]2c3cc4c(cc3CN3CC[C@H](C[C@@H]1OC(C)=O)[C@H]23)OCO4`: the MIC against Flavobacterium columnare [1], in the assay on Edwardsiella ictaluri, against Flavobacterium columnare [2] and in the assay with Staphylococcus aureus [5] was over 37 µg/mL throughout.

As to `COC1C=C[C@@]23CCN(Cc4cc5c(cc42)OCO5)[C@@H]3C1` (some centres not stated), the MIC with Escherichia coli [6] and with Staphylococcus aureus [7] was 1020 µg/mL (≈ 3590 µM) in each case.

As for `COC1=C[C@@H]2CCN3Cc4cc5c(cc4[C@@H]([C@H]23)[C@@H]1O)OCO5` [AMARBELLISINE], the zone of inhibition at 3000 µg/mL in the assay on Escherichia coli [8] and in the assay on Staphylococcus aureus [9] was 22 mm in each case.

As to `c1cc2c3c(c1)-c1cc4c(cc1CN3CC2)OCO4` [ANHYDROLYCORINE], the zone of inhibition at 10000 µM with Rhodococcus fascians is 25 mm.

On to `c1cc2c3c(c1)c1cc4c(cc1c[n+]3CC2)OCO4` [ANHYDROLYCORINIUM CHLORIDE], for which the zone of inhibition at 10000 µM in the assay with Rhodococcus fascians worked out at 30 mm.

In the case of `CC[C@H](CC[C@@H](C)[C@H]1CC[C@H]2[C@@H]3CC=C4C[C@@H](O)CC[C@]4(C)[C@H]3CC[C@]12C)C(C)C` [BETA-SITOSTEROL], the zone of inhibition at 1000 µg/mL with Staphylococcus aureus [3] stood at 15 mm; in the assay on Escherichia coli [4] it was 13 mm.

For the compound `COc1c2c(cc3c1OCO3)[C@]13C=C[C@H](OC)C[C@H]1N(CC3)C2` [BUPHANIDRINE], the MIC amounted to 63 µg/mL (≈ 200 µM) in the assay with Escherichia coli [6], 63 µg/mL (≈ 200 µM) against Staphylococcus aureus [7], 63 µg/mL (≈ 200 µM) in the assay on Klebsiella pneumoniae and 130 µg/mL (≈ 412 µM) with Bacillus subtilis.

`O[C@@H]1CC=C2CCN3Cc4cc5c(cc4[C@H]1[C@@H]23)OCO5` [CARANINE] yielded an MIC against Escherichia coli [10] of 2050 µg/mL (≈ 7550 µM).

`COC1=CC(=O)[C@@]23CCN(Cc4c2cc2c(c4OC)OCO2)[C@@H]3C1` [DISTICHAMINE]: the MIC with Escherichia coli [6] was determined as 63 µg/mL (≈ 191 µM); against Staphylococcus aureus [7] it was 63 µg/mL (≈ 191 µM); against Klebsiella pneumoniae, 63 µg/mL (≈ 191 µM); in the assay on Bacillus subtilis, 130 µg/mL (≈ 395 µM).

For the compound `Cc1c(O)c(C)c2c(c1O)C(=O)C[C@@H](c1ccc(O)cc1)O2` [FARREROL], the results for the MIC in the assay on Pseudomonas aeruginosa [11], with Shigella flexneri and in the assay with Escherichia coli [12] were 8 µg/mL (≈ 26.6 µM), 2 µg/mL (≈ 6.66 µM) and 4 µg/mL (≈ 13.3 µM), respectively.

With `COc1ccc2c3c1O[C@H]1C[C@@H](O)C=C[C@@]31CCN(C)C2` [GALANTAMINE], the minimum inhibitory concentration (MIC) in the assay on Escherichia coli [6] and in the assay with Staphylococcus aureus [7] was 2050 µg/mL (≈ 7130 µM) throughout.

Consider `O[C@H]1[C@H]2c3cc4c(cc3CN3CCC(=C[C@@H]1O)[C@H]23)OCO4` [LYCORINE], for which the MIC in the assay on Flavobacterium columnare [1] was 100 µM; against Edwardsiella ictaluri, over 287 µg/mL; in the assay with Flavobacterium columnare [2] it was 100 µM; with Staphylococcus aureus [5] it was over 287 µg/mL. Besides, the zone of inhibition at 1000 µg/mL with Staphylococcus aureus [3] lay within 15 to 28 mm; in the assay with Escherichia coli [4], 13 to 25 mm. In addition, the zone of inhibition at 10000 µM in the assay on Rhodococcus fascians was determined as 0 mm.

For `O=C1N[C@@H]2C(=C[C@H](O)[C@@H](O)[C@H]2O)c2cc3c(c(O)c21)OCO3` [NARCICLASINE], the zone of inhibition at 1000 µg/mL in the assay on Staphylococcus aureus [3] worked out at 11 mm; in the assay on Escherichia coli [4], 13 mm. In assay [13], the inhibition at 1000 µg/mL turned out to be 62%. Besides, the inhibition of growth at 8 µg/mL in the assay on Escherichia coli [14] is 50%.

In the case of `CC1(C)S[C@@H]2[C@H](NC(=O)Cc3ccccc3)C(=O)N2[C@H]1C(=O)O` [PENICILLIN G], the values for the zone of inhibition at 1000 µg/mL with Staphylococcus aureus [3] and in the assay with Escherichia coli [4] were 28 mm and 25 mm, respectively. Moreover, the figures for the MIC against Escherichia coli [15] and in the assay on Staphylococcus aureus [16] were 0.77 µg/mL (≈ 2.3 µM) and 0.46 µg/mL (≈ 1.38 µM), respectively.

As to `COc1c(C)c(O)c2c(=O)cc(-c3ccc(O)cc3)oc2c1C` [SIDEROXYLIN], the MIC in the assay on Pseudomonas aeruginosa [11] was 64 µg/mL (≈ 205 µM); against Shigella flexneri, 8 µg/mL (≈ 25.6 µM); against Escherichia coli [12], 32 µg/mL (≈ 102 µM).

Consider `CN(C)[C@@H]1C(O)=C(C(N)=O)C(=O)[C@@]2(O)C(O)=C3C(=O)c4c(O)cccc4[C@@](C)(O)[C@H]3C[C@@H]12` [TETRACYCLINE], for which the MIC came to 2 µg/mL (≈ 4.5 µM) in the assay with Escherichia coli [6] and 0.5 µg/mL (≈ 1.13 µM) in the assay with Staphylococcus aureus [7].

As for `[O-]c1cc2c3c(c1)c1cc4c(cc1c[n+]3CC2)OCO4` [UNGEREMINE], the MIC against Flavobacterium columnare [1] was 1 µM; against Edwardsiella ictaluri it was 3 µg/mL (≈ 11.3 µM); in the assay with Pseudomonas aeruginosa [17], 125 to 250 µg/mL (≈ 471 to 942 µM); in the assay with Flavobacterium columnare [18] it was 3 µg/mL (≈ 11.3 µM); against Flavobacterium columnare [19], 3 µg/mL (≈ 11.3 µM); in the assay with Flavobacterium columnare [2] it was 1 µM. Moreover, the MIC is 25 to 50 µg/mL (≈ 94.2 to 188 µM) with Escherichia coli [10] and 25 to 265 µg/mL (≈ 94.2 to 999 µM) in the assay on Staphylococcus aureus [5]. In addition, the zone of inhibition at 10000 µM in the assay with Rhodococcus fascians is 15 mm.

As for `O[C@@H]1C=C[C@]23CCN(Cc4cc5c(cc42)OCO5)[C@H]3C1` [VITTATINE], the zone of inhibition at 3000 µg/mL in the assay with Escherichia coli [8] was found to be 22 mm; in the assay on Staphylococcus aureus [9], 19 mm.
